# Experimental data: ChEMBL document CHEMBL5131473, “One-pot synthesis of oxoaporphines as potent antitumor agents and investigation of their mechanisms of actions” (Eur J Med Chem, 2022)
# The source made the active and inactive calls. The calls are words filed in the database; no cut-off is given here.
# Key:
# [1] = test system: T-24; assay: Induction of apoptosis in human T24 cells assessed as increase in caspase 9 activity at 1 uM (Rvb= 7.2%); type: functional
# [2] = test system: T-24; assay: Induction of apoptosis in human T24 cells assessed as contracted small fragmented nuclei at 0.5 uM by Hoechst33258 staining based fluorescence microscopy; type: functional, cell-based
# [3] = test system: T-24; assay: Induction of ROS accumulation in human T24 cells assessed as increase in intracellular ROS level at 0.5 uM by […] based flow cytometry; type: functional, cell-based
# [4] = test system: T-24; assay: Induction of cell cycle arrest in human T24 cells assessed as accumulation of cells at G2/M phase at 1 uM incubated for 24 hrs by propidium iodide/RNase A staining based flow cytometry analysis (reference value: 5.82 %); type: functional
# [5] = test system: T-24; assay: Induction of DNA damage in human T24 cells assessed as increase in gamma H2AX phosphorylation at 0.5 uM incubated for 24 hrs by Hoechst33258 staining based immunofluorescence assay; type: functional, cell-based
# [6] = test system: T-24; assay: Induction of apoptosis in human T24 cells assessed as late apoptotic cells at 1 uM incubated for 24 hrs by Annexin-V/PI staining based flow cytometry analysis (reference value: 0.543 %); type: functional
# [7] = test system: T-24; assay: Induction of mitochondrial membrane potential dysfunction in human T24 cells assessed as change in morphology at 0.5 to 1 uM by Mitotracker green dye based fluorescence microscopy; type: functional, cell-based; conditions: dose 0.5-1 µM
# [8] = test system: T-24; assay: Induction of mitochondrial membrane potential dysfunction in human T24 cells assessed as increase in fragmentation at 0.5 uM incubated for 24 hrs by TEM analysis; type: functional, cell-based
# [9] = test system: T-24; assay: Induction of apoptosis in human T24 cells assessed as increase in caspase 3 activity at 1 uM (Rvb= 3.1%); type: functional
# [10] = Toxicity in human WI-38 cells assessed as wound closure at 0.25 uM measured after 24 hrs by fluorescence microscopy based wound healing assay; type: cell-based; conditions: wi-38, 24 h
# [11] = test system: T-24; assay: Induction of mitochondrial ROS generation in human T24 cells at 0.5 uM measured after 24 hrs by DCFH-DA staining based confocal microscopy method; type: functional, cell-based
# [12] = test system: T-24; assay: Induction of mitochondrial ROS generation in human T24 cells at 0.5 uM measured after 24 hrs by Mitotracker Red dye based confocal microscopy method; type: functional, cell-based
# [13] = test system: T-24; assay: Induction of apoptosis in human T24 cells assessed as increase in caspase 9 activity at 0.5 uM (Rvb= 7.2%); type: functional
# [14] = test system: T-24; assay: Induction of cell cycle arrest in human T24 cells assessed as accumulation of cells at G1 phase at 0.5 uM incubated for 24 hrs by propidium iodide/RNase A staining based flow cytometry analysis (reference value: 51.71 %); type: functional
# [15] = test system: T-24; assay: Induction of apoptosis in human T24 cells assessed as viable cells at 15 uM incubated for 24 hrs by Annexin-V/PI staining based flow cytometry analysis (reference value: 94.3 %); type: functional; conditions: read-out: Activity
# [16] = test system: T-24; assay: Induction of ROS accumulation in human T24 cells assessed as increase in intracellular ROS level at 10 uM by […] based flow cytometry; type: functional, cell-based
# [17] = test system: T-24; assay: Induction of DNA damage in human T24 cells assessed as increase in […] p53 expression at 10 to 15 uM incubated for 24 hrs by Western blot analysis; type: functional, cell-based; conditions: dose 10-15 µM
# [18] = test system: T-24; assay: Induction of cell cycle arrest in human T24 cells assessed as accumulation of cells at G2/M phase at 10 uM incubated for 24 hrs by propidium iodide/RNase A staining based flow cytometry analysis (reference value: 5.82 %); type: functional
# [19] = test system: T-24; assay: Induction of mitochondrial membrane potential dysfunction in human T24 cells assessed as increase in fragmentation at 10 uM incubated for 24 hrs by TEM analysis; type: functional, cell-based
# [20] = test system: T-24; assay: Induction of apoptosis in human T24 cells assessed as late apoptotic cells at 20 uM incubated for 24 hrs by Annexin-V/PI staining based flow cytometry analysis (reference value: 0.543 %); type: functional
# [21] = test system: T-24; assay: Induction of ROS generation in human T24 cells at 10 uM by fluorescence microscopy; type: functional, cell-based
# [22] = Toxicity in human WI-38 cells assessed as wound closure at 5 uM measured after 24 hrs by fluorescence microscopy based wound healing assay; type: cell-based; conditions: wi-38, 24 h
# [23] = test system: T-24; assay: Induction of mitochondrial mediated apoptosis in human T24 cells assessed as upregulation of cytochrome c expression at 10 to 15 uM incubated for 24 hrs by Western blotting analysis; type: functional, cell-based; conditions: dose 10-15 µM
# [24] = test system: T-24; assay: Induction of apoptosis in human T24 cells assessed as necrotic cells at 15 uM incubated for 24 hrs by Annexin-V/PI staining based flow cytometry analysis (reference value: 1.92 %); type: functional
# [25] = test system: T-24; assay: Induction of cell cycle arrest in human T24 cells assessed as accumulation of cells at G2/M phase at 2 uM incubated for 24 hrs by propidium iodide/RNase A staining based flow cytometry analysis (reference value: 5.82 %); type: functional
# [26] = test system: T-24; assay: Induction of mitochondrial membrane potential dysfunction in human T24 cells assessed as shrinking mitochondria at 2 uM incubated for 24 hrs by TEM analysis; type: functional, cell-based
# [27] = test system: T-24; assay: Induction of mitochondrial ROS generation in human T24 cells at 2 uM measured after 24 hrs by DCFH-DA staining based confocal microscopy method; type: functional, cell-based
# [28] = test system: T-24; assay: Induction of apoptosis in human T24 cells assessed as increase in caspase 9 activity at 4 uM (Rvb= 7.2%); type: functional
# [29] = test system: T-24; assay: Induction of mitochondrial membrane potential dysfunction in human T24 cells assessed as decrease in ATP production at 4 uM; type: functional; set-up: scale not given: the % may be the effect or the level left
# [30] = test system: T-24; assay: Induction of ROS generation in human T24 cells at 2 uM by fluorescence microscopy; type: functional, cell-based
# [31] = test system: T-24; assay: Induction of apoptosis in human T24 cells assessed as necrotic cells at 6 uM incubated for 24 hrs by Annexin-V/PI staining based flow cytometry analysis (reference value: 1.92 %); type: functional
# [32] = test system: T-24; assay: Induction of cell cycle arrest in human T24 cells assessed as accumulation of cells at S phase at 4 uM incubated for 24 hrs by propidium iodide/RNase A staining based flow cytometry analysis (reference value: 42.47 %); type: functional
# [33] = test system: T-24; assay: Induction of apoptosis in human T24 cells assessed as increase in caspase 3 activity at 2 uM (Rvb= 3.1%); type: functional
# [34] = test system: T-24; assay: Induction of mitochondrial Ca2+ production in human T24 cells assessed as increase in intracellular Ca2+ concentration at 2 uM by Rhod2-AM staining based fluorescence microscopic method; type: functional, cell-based
# [35] = test system: T-24; assay: Induction of cell cycle arrest in human T24 cells assessed as accumulation of cells at G2/M phase at 4 uM incubated for 24 hrs by propidium iodide/RNase A staining based flow cytometry analysis (reference value: 5.82 %); type: functional
# [36] = test system: T-24; assay: Induction of mitochondrial mediated apoptosis in human T24 cells assessed as upregulation of apaf-1 expression at 2 to 4 uM incubated for 24 hrs by Western blotting analysis; type: functional, cell-based; conditions: dose 2-4 µM
# [37] = test system: T-24; assay: Induction of mitochondrial mediated apoptosis in human T24 cells assessed as upregulation of cytochrome c expression at 2 to 4 uM incubated for 24 hrs by Western blotting analysis; type: functional, cell-based; conditions: dose 2-4 µM
# [38] = test system: T-24; assay: Inhibition of colony formation in human T24 cells at 0.16 uM incubated for 24 hrs and measured for 10 days; type: functional, cell-based
compound,measurement,setting,value
O=C1c2ccccc2-c2ccc([N+](=O)[O-])c3ccnc1c23,Activity,[1],53.6%
same,Activity,[2],Active
same,Activity,[3],Active
same,Activity,[4],61.26%
same,Activity,[5],Active
same,Activity,[6],6.25%
same,Activity,[7],Active
same,Activity,[8],Active
same,Activity,[9],38.8%
same,Activity,[10],Non-Toxic
same,Activity,[11],Active
same,Activity,[12],Active
same,Activity,[13],26.9%
same,Activity,[14],0.58%
O=C1c2ccccc2-c2cccc3ccnc1c23,viability at 15 µM,[15],58%
same,Activity,[16],Active
same,Activity,[17],Active
same,Activity,[18],13.69%
same,Activity,[19],Active
same,Activity,[20],4.89%
same,Activity,[21],Active
same,Activity,[22],Non-Toxic
same,Activity,[23],Active
same,Activity,[24],2.44%
O=C1c2cc([N+](=O)[O-])ccc2-c2ccc([N+](=O)[O-])c3ccnc1c23,Activity,[25],33.02%
same,Activity,[26],Active
same,Activity,[27],Active
same,Activity,[28],28.9%
same,Activity,[29],43.1%
same,Activity,[30],Active
same,Activity,[31],3.14%
same,Activity,[32],70.53%
same,Activity,[33],24.6%
same,Activity,[34],Active
same,Activity,[35],14.18%
same,Activity,[36],Active
same,Activity,[37],Active
same,inhibition,[38],Active
